In the supplement of paper PMC11061612:

Key:
[1] = test system: FU-OV-1 (Ovarian Carcinoma); assay: combination Emax (second highest fraction inhibited in the dose matrix, 72 h); higher = more inhibition; extreme values may be limits of the assay
Procedure, shortened: (§1)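 After 24 hours at 37°C and 5% CO2 in 1536-well plates, cells in DMEM/F12 or RPMI plus 10% FBS received two-drug dose matrices for 72 hours. Viability came from CellTiter-Glo 2.0 luminescence and was scaled as inhibition, anchored at 0 by vehicle wells and at 1 by blank wells. Combination Emax is taken as the second-highest inhibition in the matrix, and Bliss excess as the observed combination effect less EA + EB − EA·EB, with EA and EB the single-agent effects.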

[2] = test system: TC-YIK (Other Solid Carcinomas); assay: as above
Procedure, shortened: as §1

[3] = test system: HCC1143 (Breast Carcinoma); assay: Bliss excess, mean over the matrix (fraction); higher = more synergy
Procedure, shortened: as §1

D-392MG (Glioblastoma) = assay: as above
Procedure, shortened: as §1

Saos-2 (Osteosarcoma) = assay: as above
Procedure, shortened: as §1

[4] = test system: FU-OV-1 (Ovarian Carcinoma); assay: as above
Procedure, shortened: as §1

[5] = test system: SK-LMS-1 (Other Solid Carcinomas); assay: as above
Procedure, shortened: as §1

[6] = test system: KG-1 (Acute Myeloid Leukemia); assay: as above
Procedure, shortened: as §1

[7] = test system: YT (Other Blood Carcinomas); assay: as above
Procedure, shortened: as §1

[8] = test system: TC-YIK (Other Solid Carcinomas); assay: as above
Procedure, shortened: as §1

[9] = test system: PA-TU-8902 (Pancreatic Carcinoma); assay: as above
Procedure, shortened: as §1

MCF7 (Breast Carcinoma) = assay: as above
Procedure, shortened: as §1

[10] = test system: DOK (Oral Cavity Carcinoma); assay: as above
Procedure, shortened: as §1

SK-MEL-1 (Melanoma) = assay: as above
Procedure, shortened: as §1

[11] = test system: HLE (Hepatocellular Carcinoma); assay: as above
Procedure, shortened: as §1

[12] = test system: CAL-39 (Other Solid Carcinomas); assay: as above
Procedure, shortened: as §1
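For Bliss excess, mean over the matrix in this document: after 72 h of two-drug dosing.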

Row | SMILES | combination Emax [1] | combination Emax [2] | Bliss excess [3] | Bliss excess (D-392MG (Glioblastoma)) | Bliss excess (Saos-2 (Osteosarcoma)) | Bliss excess [4] | Bliss excess [5] | Bliss excess [6] | Bliss excess [7] | Bliss excess [8] | Bliss excess [9] | Bliss excess (MCF7 (Breast Carcinoma)) | Bliss excess [10] | Bliss excess (SK-MEL-1 (Melanoma)) | Bliss excess [11] | Bliss excess [12]
1 | CN(C)CCCOc1ccc(-c2ccc3ncc4c(c3c2)n(C2CCOCC2)c(=O)n4C)cn1 [AZD0156] + O=C(c1cc(Cc2n[nH]c(=O)c3ccccc23)ccc1F)N1CCN(C(=O)C2CC2)CC1 [Olaparib] (first compound max 3 µM, partner max 3 µM) | 0.211 | 0.379 | -0.0194 | -0.0585 | 0.0334 | -0.0526 | 0.0373 | 0.0474 | 0.0265 | 0.102 | -0.0456 | 0.0509 | 0.0549 | -0.0491 | -0.0129 | 0.0549
2 | C=CCn1c(=O)c2cnc(Nc3ccc(N4CCN(C)CC4)cc3)nc2n1-c1cccc(C(C)(C)O)n1 [AZD1775] + C1CN(CCC1(C(=O)N[C@@H](CCO)C2=CC=C(C=C2)Cl)N)C3=NC=NC4=C3C=CN4 [Capivasertib] (first compound max 3 µM, partner max 3 µM) | 0.565 | 0.895 | -0.05 | 0.0315 | -0.0459 | -0.0615 | -0.087 | 0.0152 | -0.0938 | -0.0543 | -0.0609 | 0.0075 | 0.0014 | -0.059 | -0.0734 | -0.0152
3 | COc1nnc2ccc(N3CCC(c4ccc(OCCN5CCN(C)C(=O)[C@H]5C)cc4)CC3)nn12 [AZD5153] + C=CCn1c(=O)c2cnc(Nc3ccc(N4CCN(C)CC4)cc3)nc2n1-c1cccc(C(C)(C)O)n1 [AZD1775] (first compound max 1 µM, partner max 1 µM) | 0.631 | 0.935 | -0.0047 | -0.0797 | -0.0011 | 0.0138 | -0.0353 | 0.004 | -0.0842 | -0.0712 | 0.0421 | -0.0356 | -0.0239 | -0.0312 | 0.0069 | -0.0493
4 | COc1nnc2ccc(N3CCC(c4ccc(OCCN5CCN(C)C(=O)[C@H]5C)cc4)CC3)nn12 [AZD5153] + CC1(C)CCC(CN2CCN(c3ccc(C(=O)NS(=O)(=O)c4ccc(NCC5CCOCC5)c([N+](=O)[O-])c4)c(Oc4cnc5[nH]ccc5c4)c3)CC2)=C(c2ccc(Cl)cc2)C1 [Venetoclax] (first compound max 1 µM, 7x7, partner max 1 µM) | 0.631 | 0.862 | -0.0247 | -0.0961 | -0.0304 | -0.0369 | -0.0641 | 0.163 | -0.0496 | -0.0716 | -0.0908 | -0.0183 | -0.0696 | 0.0777 | -0.0522 | -0.0432
5 | COc1nnc2ccc(N3CCC(c4ccc(OCCN5CCN(C)C(=O)[C@H]5C)cc4)CC3)nn12 [AZD5153] + CCN(CCO)CCCOc1ccc2c(Nc3cc(CC(=O)Nc4cccc(F)c4)[nH]n3)ncnc2c1 [AZD2811] (first compound max 1 µM, 7x7, partner max 1 µM) | 0.691 | 0.915 | -0.0474 | -0.037 | -0.0809 | -0.0571 | 0.0012 | 0.0074 | -0.0579 | -0.106 | -0.0246 | -0.0721 | -0.0906 | -0.0295 | -0.0177 | -0.0508
6 | COc1nnc2ccc(N3CCC(c4ccc(OCCN5CCN(C)C(=O)[C@H]5C)cc4)CC3)nn12 [AZD5153] + C[C@@H]1COCCN1C2=NC(=NC(=C2)C3(CC3)[S@](=N)(=O)C)C4=C5C=CNC5=NC=C4 [AZD6738] (first compound max 1 µM, 7x7, partner max 10 µM) | 0.744 | 0.965 | -0.0036 | -0.0033 | 0.0391 | -0.0452 | -0.0163 | 0.0159 | -0.0687 | -0.0626 | 0.0565 | -0.0228 | 0.008 | 0.0103 | 0.0608 | -0.011
7 | COc1nnc2ccc(N3CCC(c4ccc(OCCN5CCN(C)C(=O)[C@H]5C)cc4)CC3)nn12 [AZD5153] + Cc1c2c(nn1C)CSCc1cc(n(C)n1)CSc1cc(c3ccccc3c1)OCCCc1c(C(=O)O)n(C)c3c-2c(Cl)ccc13 [AZD5991] (first compound max 1 µM, 7x7, partner max 1 µM) | 0.835 | 0.98 | 0.0412 | -0.0388 | 0.0143 | 0.0022 | 0.0003 | 0.0382 | -0.0316 | -0.0146 | -0.0316 | -0.0003 | -0.0051 | -0.0016 | 0.0047 | 0.0313
8 | COc1nnc2ccc(N3CCC(c4ccc(OCCN5CCN(C)C(=O)[C@H]5C)cc4)CC3)nn12 [AZD5153] + Cn1cnc2c(F)c(Nc3ccc(Br)cc3Cl)c(C(=O)NOCCO)cc21 [Selumetinib] (first compound max 1 µM, 7x7, partner max 10 µM) | 0.735 | 0.93 | 0.0561 | 0.0081 | -0.0452 | 0.0236 | 0.0383 | 0.024 | -0.0383 | 0.0028 | -0.0869 | -0.0307 | -0.0297 | 0.0933 | 0.0073 | -0.0175
9 | NC1(C(=O)N[C@@H](CCO)c2ccc(Cl)cc2)CCN(c2ncnc3[nH]ccc23)CC1 [Capivasertib] + CC(=O)c1c(C)c2cnc(Nc3ccc(N4CCNCC4)cn3)nc2n(C2CCCC2)c1=O [Palbociclib] (first compound max 10 µM, 7x7, partner max 10 µM) | 0.236 | 0.44 | 0.0317 | 0.0094 | 0.0005 | -0.0388 | 0.0514 | -0.0421 | -0.0344 | -0.048 | -0.0606 | 0.049 | 0.016 | -0.0307 | -0.002 | 0.0167
10 | NC1(C(=O)N[C@@H](CCO)c2ccc(Cl)cc2)CCN(c2ncnc3[nH]ccc23)CC1 [Capivasertib] + CC(C)n1c(=O)n(C)c2cnc3cc(F)c(-c4ccc(OCCCN5CCCCC5)nc4)cc3c21 [AZD1390] (first compound max 10 µM, 7x7, partner max 0.3 µM) | 0.253 | 0.17 | -0.0661 | -0.0645 | -0.0063 | -0.0541 | -0.045 | -0.0386 | -0.0228 | -0.0346 | -0.0859 | -0.11 | -0.0428 | -0.0207 | -0.0323 | -0.0731
11 | NC1(C(=O)N[C@@H](CCO)c2ccc(Cl)cc2)CCN(c2ncnc3[nH]ccc23)CC1 [Capivasertib] + CCN(CCO)CCCOc1ccc2c(Nc3cc(CC(=O)Nc4cccc(F)c4)[nH]n3)ncnc2c1 [AZD2811] (first compound max 10 µM, 7x7, partner max 1 µM) | 0.268 | 0.95 | 0.0137 | -0.0265 | -0.0757 | -0.0235 | -0.0055 | -0.0204 | 0.002 | -0.0415 | -0.0381 | 0.0943 | -0.0355 | 0.0563 | 0.0121 | -0.051
12 | NC1(C(=O)N[C@@H](CCO)c2ccc(Cl)cc2)CCN(c2ncnc3[nH]ccc23)CC1 [Capivasertib] + COc1nnc2ccc(N3CCC(c4ccc(OCCN5CCN(C)C(=O)[C@H]5C)cc4)CC3)nn12 [AZD5153] (first compound max 10 µM, 7x7, partner max 1 µM) | 0.575 | 0.962 | -0.0035 | -0.015 | -0.0028 | -0.0492 | 0.0014 | -0.0162 | 0.007 | -0.0723 | -0.0841 | -0.0413 | 0.03 | 0.0315 | -0.0096 | -0.0579
13 | NC1(C(=O)N[C@@H](CCO)c2ccc(Cl)cc2)CCN(c2ncnc3[nH]ccc23)CC1 [Capivasertib] + C[C@@H]1COCCN1C2=NC(=NC(=C2)C3(CC3)[S@](=N)(=O)C)C4=C5C=CNC5=NC=C4 [AZD6738] (first compound max 10 µM, 7x7, partner max 10 µM) | 0.35 | 0.901 | -0.105 | -0.0393 | -0.0717 | -0.0313 | 0.0094 | -0.026 | -0.0249 | 0.0091 | 0.0247 | -0.0707 | -0.0681 | 0.0147 | -0.038 | 0.0019
14 | NC1(C(=O)N[C@@H](CCO)c2ccc(Cl)cc2)CCN(c2ncnc3[nH]ccc23)CC1 [Capivasertib] + Cn1cnc2c(F)c(Nc3ccc(Br)cc3Cl)c(C(=O)NOCCO)cc21 [Selumetinib] (first compound max 10 µM, 7x7, partner max 10 µM) | 0.592 | 0.496 | -0.0014 | -0.0202 | 0.0087 | -0.0316 | 0.0883 | -0.0045 | -0.0041 | 0.0245 | 0.0181 | -0.0332 | 0.0518 | 0.0465 | 0.0365 | -0.019
